Measured values taken from patent US20230296590A1, “Devices and Methods to Induce Adult type Maturation of Human Pluripotent Stem Cell Derived Cardiomyocytes” (priority 2022, published 2023).
“Also recorded” adds a separate entry of the source. Bridge positions count the residues as written; N and C are the ends. Ends that are not written are not given here.

Assays:
Format in all cases: cell-based, human
hiPSC-CMs [1] = assay: Sarcoplasmic reticulum calcium content, caffeine-induced Ca2+ release, Fura2 imaging; conditions: 10 mM
Method: To investigate calcium content of the sarcoplasmic reticulum (SR), Fura2 (ThermoFisher 3 uM) loaded cells were perfused with caffeine. Cells were initially perfused with modified Tyrode solution at 37C (pH 7.4) containing (in mM) 130 NaCl, 5 KCl, 1 MgCl2, 1.2 CaCl2, 20 Na-HEPES, 10 glucose, 1 pyruvate, 0.1% fatty acid free-BSA. After pacing the cells at 0.5 Hz for 30-40 sec, cells were perfused with the modified Tyrode buffer containing caffeine (10 mM). Images were analyzed using image J (NIH). Line plots (trace plots) were generated for both action potential and calcium transients by calculating average intensity (and standard deviation) from 3 biological batches with >100 cells for each timepoint and plotting it against the time (using R).

hiPSC-CMs [2] = assay: Optical recording of action potential with genetically encoded voltage indicators (Varnam, Arclight); conditions: cells on CMM
Excerpt: Cyto-calcium, Action potential and redox handling. Cytoplasmic calcium and redox status of iPSC-CMs using spinning disk confocal microscope (Olympus/Andor Revolution XD) was monitored. 3rd gen. lentiviral probes using ViraPower™ Lentiviral mix was generated and transduced iPSC-CMs using MOI 5 (multiplicity of infection) that generated good signal to noise ratio. Cytoplasmic targeted roGFP-Grx1 probes(Gutscher et al., 2008), Calcium probe (genetically encoded Ca^2+ indicators (GECIs)-GCamP6f(Hubbi et al., 2013), Arclight(Jin et al., 2012) and Varnam(Kannan et al., 2018) were obtained from Addgene and transferred to pENTR™/SD/D-TOPO® vector using PCR. The vector was sequence verified and then transferred to pLEX_307 vector (Addgene plasmid #41392) that contains the EFlα promoter using the LR reaction. […] The virus was generated for each probe in HEK293-FT cells using an optimized mix of three packaging plasmids (pLP1, pLP2, and pLP/VSVG). The virus was concentrated using PEG-it™ Virus Precipitation Solution (SBI biosciences) that also removes HEK293-FT cell medium.
To monitor the florescence signal from cells transduced with probes, cells were plated at a density of 200,000 per cm^2 on cultured surfaces for at least 10-15 days prior to imaging, to achieve cell-cell coupling. […]
Florescence from cells (transduced with probes) was collected separately at a […] using an electron-multiplying charge-coupled device (EMCCD) camera using Andor Revolution X1 Spinning Disk confocal inverted microscope. […] ROS (roGFP2-Grx) probes were excited with 405 nm and 488 nm laser and emission was detected using bandpass filter of 500 nm-554 nm. […] Recovery of glutathione pool was monitored for 180-240 sec before the utilization of diamide (oxidized) and DTT (reduced) to obtain min and max signal. […] Cells transduced with cytoplasmic GCamp6f were excited at 488 nm and emission was detected using bandpass filter of 500 nm-554 nm. […] The data was analyzed using image J (NIH).

hiPSC-CMs [3] = assay: Acute pathological hypertrophy model (endothelin-1 treatment), functional evaluation; conditions: for effect on FAO / effect on OxPhos / effect on glycolysis: 10 nM, 48 hrs
Method: Human iPSC culture and cardiac differentiation. Human iPSCs (WTC-11) were cultured using chemically defined medium and published protocols (Burridge et al., 2014; Tohyama et al., 2013). Undifferentiated iPSCs were seeded (125,000 cells per cm^2) on Geltrex (ThermoScientific)-coated six-well plates and maintained in E8 medium (Life Technologies) for 4 days when they reached 80-85% confluence. Medium was then changed to cardiac differentiation medium (CDM), consisting of RPMI 1640 medium (11875, ThermoScientific), 500 μg/ml O. sativa—derived recombinant human albumin (A9731, Sigma-Aldrich), and 220 μg/ml L-ascorbic acid (A4544-Sigma-Aldrich), containing B27 supplement-insulin free (A1895601 ThermoScientific) to initiate differentiation. On d0-d2, medium was supplemented with 6 μM CHIR99021 (LC Laboratories) for induction of mesoderm. On d4-d5, medium was supplemented with 10 uM IWR (Selleck Chemicals) for cardiac differentiation. Contracting cells are typically noted, starting on d7-d8. To purify cardiac myocytes, a variant of RPMI 1640 medium without D-glucose (11879, Life Technologies) was supplemented with 4 mM sodium lactate (L4263, Sigma-Aldrich) for 2 days on day 10 of differentiation followed by culture in cardiac media, containing B-27™ Supplement with insulin (17504001, ThermoScientific) in CDM medium (Tohyama et al., 2013). Cells were dissociated on d13-d14 using TrypLE (ThermoScientific) and plated/cultured on either flat/anisotropic cell culture surfaces for 15-16 further days (d30 for flat and CMM) or 45 days (d60 for flat culture surface) in cardiac culture media. Cardiac culture media was used in all the conditions from day 13-d14 onwards, and it was composed of RPMI-1640, lipid-enhanced Cellastium S, 220 μg/ml L-ascorbic acid and B27 with insulin. Control flat tissue-culture surfaces were coated with fibronectin at a concentration of 4 μg/cm^2. For hypertrophy induction, day 30 differentiated cells were treated with 10 nM endothelin 1 (E7764 Millipore Sigma) for 48 hrs in cardiac culture media.
Mitochondrial respiration. Cellular energetics was monitored using the Seahorse Bioscience XF instrument in intact cells (non-permeabilized cells) and permeabilized cells(Afzal et al., 2017; Salabei et al., 2014). Intact cell respiration was monitored to evaluate the contribution of oxidative phosphorylation versus glycolysis, whereas permeabilized cell respiration was used to monitor electron transport chain (ETC) complex function/activity using ETC complex specific substrates and fatty acid oxidation.
For permeabilized cell respiration, iPSC-CMs were permeabilized using […] of Seahorse XF Plasma Membrane Permeabilizer (Part #102504-100). In permeabilized cells only OCR is measured. Mitochondria respiration were assayed using Buffer (pH 7.2) containing 137 mM KCl, 2 mM KH2PO4, 0.5 mM EGTA, 2.4 mM MgCl2, 20 mM HEPES with 0.2% fatty acid-free BSA (Sigma). Respiration rates were normalized to the protein concentration using BCA assay. Complex I respiration were evaluated by 5 mM glutamate and 5 mM malate (G/M) to evaluate State 4 respiration; 4 mM ADP was then injected to evaluate State 3 respiration. Maximal respiratory capacity (uncoupled mitochondria) was measured by injecting […]. Coupling of Electron Transport Chain respiration to ATP synthesis were evaluated using the ATP synthase inhibitor oligomycin (4 uM). Complex II respiration were measured using 5 mM succinate. Fatty acid oxidation was measured by injecting 200 uM of Palmitoyl-1-carnitine chloride/2.5 mM Malate and assessing the increase in OCR.
Florescence from cells (transduced with probes) was collected separately at a […] using an electron-multiplying charge-coupled device (EMCCD) camera using Andor Revolution X1 Spinning Disk confocal inverted microscope. Data was acquired with 2×2 pixel binning. ROS (roGFP2-Grx) probes were excited with 405 nm and 488 nm laser and emission was detected using bandpass filter of 500 nm-554 nm. […]

In the case of `Cn1c(=O)c2c(ncn2C)n(C)c1=O` [caffeine], the “calcium amplitude following caffeine exposure (SR load)” value (hiPSC-CMs [1]; cells matured on CMM) is reported as “significant increase in amplitude” and the “calcium release from SR following caffeine exposure” value (hiPSC-CMs [1]; d30 cells) is reported as “failed to demonstrate the calcium release”.
`CN(CCOc1ccc(NS(C)(=O)=O)cc1)CCc1ccc(NS(C)(=O)=O)cc1` [Dofetilide] was tested, and the “tolerance of cells to 10 nM dose” value (hiPSC-CMs [2]; 10 nM) was “fail to tolerate” and the “effect on action potential” value (hiPSC-CMs [2]; Dofetilide IKr 3 nM) was “AP prolongation and early after depolarization (EAD); also recorded: appearance of EAD and APD prolongation”.
“endothelin 1 (CSCSSLMDKECVYFCHLDIIW; disulfide 1-15, 3-11; ends not checked; UniProt P05305 53-73, looked up) [ET-1, pathological hypertrophy stimulus (E7764 Millipore Sigma)]” was tested, and the “effect on action potential duration” value (hiPSC-CMs [3]; both d30 and CMM) was “increase”, the “effect on beating frequency” value (hiPSC-CMs [3]; both d30 and CMM) was “decrease” and the “effect on Ca2+ peak amplitude” value (hiPSC-CMs [3]; cells on CMM) was “no significant effect”. The “effect on oxidative stress handling (roGFP2 after H2O2)” value (hiPSC-CMs [3]; cells on CMM) was “unperturbed”, the “effect on FAO” value (hiPSC-CMs [3]; cells on CMM) was “reduction” and the “effect on OxPhos” value (hiPSC-CMs [3]; cells on CMM) was “no effect”. For the same molecule, the effect on glycolysis (hiPSC-CMs [3]; cells on CMM) was “slight increase”, the “effect on respiratory control ratio (state 3/state 4)” value (hiPSC-CMs [3]; cells on CMM, acute treatment) was “not affected” and the “effect on Ca2+ peak amplitude” value (hiPSC-CMs [3]; d30 cells) was “increase in peak amplitude”. For the same molecule, the “effect on oxidative stress handling (roGFP2 after H2O2)” value (hiPSC-CMs [3]; d30 cells) was “reduced oxidative stress handling”, the “effect on FAO” value (hiPSC-CMs [3]; d30 cells) was “increase” and the “effect on OxPhos” value (hiPSC-CMs [3]; d30 cells) was “significantly increased”. For the same molecule, the effect on glycolysis (hiPSC-CMs [3]; d30 cells) was “significantly increased”.
For `CCN(CC)CC(=O)Nc1c(C)cccc1C` [Lidocaine], the “reduction of beat frequency” value (hiPSC-CMs [2]; Lidocaine INa 100 um, 2 biological batches, n=30) was roughly 40%.
